{"source": "patent US8486885B2", "about": "“β-arrestin effectors and compositions and methods of use thereof” (Trevena, Inc., priority 2008, dated 2013)", "format_in_all_cases": "cell-based", "key": {"[1]": {"biological_target": "T1, rat angiotensin 2 type 1 receptor (rat AT1aR) (Rattus norvegicus, UniProt P25095)", "T1 construct": "expressed in transfected cells", "T1 sequence (P25095 1-359)": "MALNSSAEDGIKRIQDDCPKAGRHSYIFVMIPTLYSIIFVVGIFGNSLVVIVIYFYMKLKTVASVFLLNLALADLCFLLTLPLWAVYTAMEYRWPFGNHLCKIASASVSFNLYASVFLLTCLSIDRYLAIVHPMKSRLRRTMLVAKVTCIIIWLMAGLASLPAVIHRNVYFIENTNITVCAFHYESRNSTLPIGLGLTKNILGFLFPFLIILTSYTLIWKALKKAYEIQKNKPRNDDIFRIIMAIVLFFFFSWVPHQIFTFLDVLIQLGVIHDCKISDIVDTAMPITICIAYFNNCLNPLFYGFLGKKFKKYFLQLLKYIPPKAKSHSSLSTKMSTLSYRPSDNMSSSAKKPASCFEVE", "assay": "IP1 accumulation assay (IP-One Tb), rat AT1aR", "conditions": "cells expressing rat AT1aR", "description": "(§1) A secondary measure of G protein coupling efficacy was also performed. IP3 is generated by activation of phospholipase C by Gα-q. IP3 is degraded to IP1, which can be forced to accumulate in cells by blocking degradation with lithium chloride. Thus we measured accumulation of IP1 to determine ligand efficacy for G protein activation.\n(§2) IP1 accumulation generated by human and rat angiotensin 2 type 1 receptor (human AT1R and rat AT1aR, respectively) was measured with IP-One Tb kits purchased from Cisbio and used per the manufacturer's instructions. Clonal stably transfected cell lines expressing human AT1TR or rat AT1aR were used for all experiments.\n(§3) For assays, 4,000 cells were seeded per well in 384-well small-volume microplates in volumes of 20 uL and allowed to grow overnight at 37° C. in 5% CO2. Cell growth media was then replaced with stimulation buffer supplied by Cisbio containing 50 mM lithium chloride. Peptides TRV-120,001 through TRV-120,035 were dissolved in deionized water to a concentration of 1 mM. For agonist detection, peptides were then further diluted in stimulation buffer to add peptide to the cells to reach final concentrations ranging from 10 uM to 1 pM. […] Following addition of peptides, cells were incubated at 37° C. in 5% CO2 for 30 minutes and then lysed with detection reagents added per manufacturer's instructions."}, "[2]": {"biological_target": "rat angiotensin 2 type 1 receptor (rat AT1aR) (Rattus norvegicus, UniProt P25095)", "assay": "PathHunter β-arrestin-2 recruitment assay, rat AT1aR", "conditions": "PathHunter β-arrestin HEK293 cells", "description": "(§4) The proximal event in β-arrestin function mediated by GPCRs is recruitment to receptors following ligand binding and receptor phosphorylation by GRK's. Thus, the measure of β-arrestin recruitment was used to determine ligand efficacy for β-arrestin function.\n(§5) B-arrestin-2 recruitment to the human and rat angiotensin 2 type 1 receptor (human AT1R and rat AT1aR, respectively) was measured with the PathHunter™ β-arrestin assay (DiscoveRx Corporation, Fremont Calif.). Cells, plasmid(s), and detection reagent(s) were purchased from DiscoveRx, and assays were performed per manufacturer's instructions. Human AT1R and rat AT1aR were cloned into the pCMV-ProLink vector, verified by sequencing, and transfected into PathHunter β-arrestin HEK293 cells. Stably transfected clonal cell lines were selected with Hygromycin and G418. These clonal cell lines were used for all experiments.\n(§6) For assays, 25,000 cells were seeded per well in 96-well microplates in volumes of 90 μL and allowed to grow overnight at 37° C. in 5% CO2. Peptides of the invention were dissolved in deionized water to a concentration of 1 mM. Peptides were then further diluted in assay buffer (Hank's balanced salt solution with 20 mM HEPES) to add peptide to the cells to reach final concentrations ranging from 10 μM to 1 pM. Cells were then incubated for 60 minutes at 37° C. in 5% CO2, followed by addition of 50 μL of PathHunter Detection Reagent to each well. The microplates were then incubated at room temperature for 60 minutes, and then luminescence was measured using a NOVOstar microplate reader purchased from BMG Labtech. B-arrestin-2 recruitment to receptors was measured as relative luminescence intensity expressed in arbitrary units."}, "[3]": {"biological_target": "T2, human angiotensin 2 type 1 receptor (human AT1R) (Homo sapiens, UniProt P30556)", "T2 construct": "expressed in transfected cells", "T2 sequence (P30556 1-359)": "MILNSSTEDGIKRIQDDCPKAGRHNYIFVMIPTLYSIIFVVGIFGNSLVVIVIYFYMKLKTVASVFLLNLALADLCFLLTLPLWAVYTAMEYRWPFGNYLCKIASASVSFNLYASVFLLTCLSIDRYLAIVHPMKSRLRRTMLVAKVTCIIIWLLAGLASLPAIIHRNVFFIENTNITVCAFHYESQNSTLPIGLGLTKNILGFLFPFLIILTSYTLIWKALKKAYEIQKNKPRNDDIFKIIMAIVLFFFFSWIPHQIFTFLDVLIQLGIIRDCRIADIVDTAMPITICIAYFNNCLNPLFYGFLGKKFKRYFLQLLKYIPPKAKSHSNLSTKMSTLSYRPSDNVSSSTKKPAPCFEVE", "assay": "IP1 accumulation assay (IP-One Tb), human AT1R", "conditions": "cells expressing human AT1R", "description": "as §1, §2, §3"}, "[4]": {"biological_target": "human angiotensin 2 type 1 receptor (human AT1R) (Homo sapiens, UniProt P30556)", "assay": "PathHunter β-arrestin-2 recruitment assay, human AT1R", "conditions": "PathHunter β-arrestin HEK293 cells", "description": "as §4, §5, §6"}}, "note": "Non-standard residues stand in square brackets, D forms with d. Residues, ends and D or L forms follow the SMILES beside them. Sar = CNCC(=O)O", "data": [{"smiles": "CNCC(=O)N[C@@H](CCCNC(=N)N)C(=O)N[C@H](C(=O)N[C@@H](Cc1ccc(O)cc1)C(=O)N[C@H](C(=O)N[C@@H](Cc1c[nH]cn1)C(N)=O)C(C)C)C(C)C", "note": "[SEQ ID NO:55, Sar-Arg-Val-Tyr-Val-His-NH2] (H-[Sar]RVYVH-NH2; N-terminus assumed)", "values": [{"measurement": "EC50", "setting": "[1]", "value": 6.8, "unit": "nM"}, {"measurement": "rat AT1aR IP One Max (%)", "setting": "[1]", "value": 98.8, "unit": "%"}, {"measurement": "rat AT1aR b-arrestin2 Max (%)", "setting": "[2]", "value": 95.6, "unit": "%"}, {"measurement": "human AT1R IP One Max (%)", "setting": "[3]", "value": 97.6, "unit": "%"}, {"measurement": "human AT1R b-arrestin2 Max (%)", "setting": "[4]", "value": 92.7, "unit": "%"}]}, {"smiles": "CC[C@H](C)[C@H](NC(=O)[C@H](Cc1ccc(O)cc1)NC(=O)[C@@H](NC(=O)[C@H](CCCNC(=N)N)NC(=O)[C@@H](N)CC(=O)O)C(C)C)C(=O)N[C@@H](Cc1c[nH]cn1)C(=O)N1CCC[C@H]1C(=O)NCC(=O)O", "note": "[SEQ ID NO:56] (H-DRVYIHPG-OH; N-terminus assumed)", "values": [{"measurement": "rat AT1aR IP One Max (%)", "setting": "[1]", "value": 98.4, "unit": "%"}, {"measurement": "rat AT1aR b-arrestin2 Max (%)", "setting": "[2]", "value": 98.5, "unit": "%"}, {"measurement": "EC50", "setting": "[2]; read-out: rat AT1aR b-arrestin2 EC50", "value": 160, "unit": "nM"}, {"measurement": "human AT1R IP One Max (%)", "setting": "[3]", "value": 96.5, "unit": "%"}, {"measurement": "human AT1R b-arrestin2 Max (%)", "setting": "[4]", "value": 104.4, "unit": "%"}]}]}
